US10894772B2, “Flavor modulator having pyridine derivative or salt thereof as active ingredient” (T. HASEGAWA CO., LTD., priority 2015, dated 2021)

Columns and labels:
Format in all cases: in vivo
panelists [1] = assay: Confirmation of umami imparting and saltiness enhancing effect in 0.3 mass % sodium chloride (evaluation in words); conditions: average of 5 panelists, Example 108
Experimental: An aqueous 0.3 mass % sodium chloride solution (control), and solutions of 2-(3-benzyloxypropyl)pyridine dissolved in a 0.3 mass % sodium chloride solution to have the concentration shown in Table 17 were prepared. As comparative products, an aqueous 0.3 mass % sodium chloride solution (control), and a solution of a comparative product, 2-(2-benzyloxyethyl)pyridine dissolved in a 0.3 mass % sodium chloride solution to have the same concentration were prepared. Well-trained 5 panelists tasted the solutions for organoleptic evaluation of umami impartment and saltiness enhancement.
An aqueous 0.3 mass % sodium chloride solution (control), and solutions of the invention product 201 or the reference product 202 dissolved in a 0.3 mass % sodium chloride solution to have the concentration as 2-(3-benzyloxypropyl)pyridine therein shown in the following Table 23 were prepared. Well-trained 5 panelists tasted the solutions for organoleptic evaluation of umami impartment and saltiness enhancement.

panelists [2] = assay: Confirmation of umami in water (organoleptic evaluation of taste and flavor in words); conditions: average of 5 panelists
Experimental: A solution was prepared by dissolving 2-(3-benzyloxypropyl)pyridine (invention product 101) in water to have a concentration shown in Table 15. As a comparative product, a solution was prepared by dissolving 2-(2-benzyloxyethyl)pyridine (comparative product 1 prepared in Comparative Example 1) to have the same concentration. Well-trained 5 panelists tasted the solutions and non-added water for organoleptic evaluation of taste and flavor.
The invention product 101 and the comparative product 1 were individually diluted with ethanol to have a proper concentration, and then further diluted with water to prepare an aqueous solution of 2-(3-benzyloxypropyl)pyridine (invention product 101 produced in Example 101) and that of 2-(2-benzyloxyethyl)pyridine (comparative product synthesized in Comparative Example 1) each having a concentration shown in the following Table 21. Well-trained panelists tasted the solution having a different concentration and non-added water for organoleptic evaluation in point of taste and flavor. […]

panelists [3] = assay: Confirmation of umami imparting and saltiness enhancing effect in 0.3 mass % sodium chloride (point score); conditions: average point of 10 panelists vs control, 0 no change, 1 slightly higher, 2 higher, 3 considerably higher, 4 extremely higher umami and saltiness, 5 bitter as lacking balance
Experimental: An aqueous 0.3 mass % sodium chloride solution (control), and solutions of the invention products 1 to 6 each dissolved in a 0.3 mass % sodium chloride solution to have the concentration shown in Table 5 were prepared. As a comparative product, a solution was prepared by dissolving the comparative product 1 in 0.3 mass % sodium chloride. Well-trained 10 panelists tasted the solutions for organoleptic evaluation of umami impartment and saltiness enhancement.
Umami and saltiness scores are as follows, based on the aqueous 0.3 mass % sodium chloride solution as a control. Each sample was given any of a point 0, no change from control; 1, slightly higher umami and saltiness than control; 2, higher umami and saltiness than control; 3, considerably higher umami and saltiness than control; 4, extremely higher umami and saltiness than control; and 5, bitter as lacking balance of umami and saltiness.

panelists [4] = assay: Confirmation of umami in water (point score); conditions: average point of 10 panelists, 0 no difference from control (water), 1 somewhat stronger, 2 stronger, 3 considerably stronger, 4 poor taste balance
Experimental: As a comparative product, a solution was prepared by dissolving the comparative product 1 (2-(2-benzyloxyethyl)pyridine) to have the same concentration. Water with no addition was prepared as a control product. Well-trained 10 panelists tasted the solutions prepared by dissolving any the invention products 1 to 6 and the comparative product 1 for organoleptic evaluation of umami.
Umami evaluation was based on the control product of water.

panelists [5] = assay: Flavor evaluation of ethanol solution (bottle mouth and flavor paper); conditions: 1% ethanol solution, typical evaluation, 5 panelists
Experimental: (§1) A 1% ethanol solution of the invention products 1 to 6 prepared in Examples 1 to 6 was prepared as an evaluation solution. The evaluation solution was prepared in a sample bottle. Regarding the flavor of the sample smelling from the bottle mouth and the flavor of a flavor paper prepared by infiltrating the evaluation solution into a paper, well-trained 5 panelists tested the solution for flavor evaluation.
as §1, with “0.1%” for “1%”, “product 101 (2-(3-benzyloxypropyl)pyridine)” for “products 1 to 6”, “Example 101” for “Examples 1 to 6”, “evaluation. A typical evaluation of the product is as follows.” for “evaluation.”

[6] = 0.05 ppb in aqueous 0.3 mass % sodium chloride solution
[7] = 0.1 ppb in aqueous 0.3 mass % sodium chloride solution
[8] = 0.1 ppm in aqueous 0.3 mass % sodium chloride solution
[9] = 0.5 ppm in aqueous 0.3 mass % sodium chloride solution
[10] = 1 ppb in aqueous 0.3 mass % sodium chloride solution
[11] = 2 ppm in aqueous 0.3 mass % sodium chloride solution
[12] = 10 ppb in aqueous 0.3 mass % sodium chloride solution
[13] = 10 ppm in aqueous 0.3 mass % sodium chloride solution
[14] = 50 ppm in aqueous 0.3 mass % sodium chloride solution

| Structure (SMILES) | umami and saltiness (average point) (panelists [3]; [6]) | umami and saltiness (average point) (panelists [3]; [7]) | umami and saltiness (average point) (panelists [3]; [8]) | umami and saltiness (average point) (panelists [3]; [9]) | umami and saltiness (average point) (panelists [3]; [10]) | umami and saltiness (average point) (panelists [3]; [11]) | umami and saltiness (average point) (panelists [3]; [12]) | umami and saltiness (average point) (panelists [3]; [13]) | umami and saltiness (average point) (panelists [3]; [14]) | umami (average point) (panelists [4]; 0.1 ppm in water) | umami (average point) (panelists [4]; 1 ppm in water) | umami (average point) (panelists [4]; 2 ppb in water) | umami (average point) (panelists [4]; 10 ppb in water) | umami (average point) (panelists [4]; 20 ppm in water) | umami (average point) (panelists [4]; 200 ppm in water) | umami (average point) (panelists [4]; 500 ppm in water) | umami (average point) (panelists [4]; 2000 ppm in water) | further results |
| --- | --- | --- | --- | --- | --- | --- | --- | --- | --- | --- | --- | --- | --- | --- | --- | --- | --- | --- |
| c1ccc(COCCc2ccccn2)cc1 [comparative product 1, 2-(2-benzyloxyethyl)pyridine, reference compound] | 0.0 | 0.0 | 2.1 | 3.0 | 0.6 | 3.4 | 1.5 | 4.2 | 4.8 | 0.8 | 1.5 | 0.0 | 0.1 | 2.2 | 2.8 | 3.3 | 3.8 | Organoleptic Evaluation (umami impartment and saltiness enhancement) (panelists [1]; 0.1 ppm in 0.3 mass % sodium chloride solution): Umami as compared with control.; Organoleptic Evaluation (umami impartment and saltiness enhancement) (panelists [1]; 10 ppb in 0.3 mass % sodium chloride solution): Slightly umami as compared with control.; Organoleptic Evaluation Taste (panelists [2]; 0.1 ppm dissolved in water, Example 107): Slightly umami.; Organoleptic Evaluation Taste (panelists [2]; 0.1 ppm, diluted with ethanol, then with water, Reference Example 201): Slightly umami.; Organoleptic Evaluation Taste (panelists [2]; 1 ppm dissolved in water, Example 107): Weakly umami.; Organoleptic Evaluation Taste (panelists [2]; 1 ppm, diluted with ethanol, then with water, Reference Example 201): Weakly umami.; Organoleptic Evaluation Flavor (panelists [2]; 2 ppb dissolved in water, Example 107): Nothing at all.; Organoleptic Evaluation Flavor (panelists [2]; 2 ppb, diluted with ethanol, then with water, Reference Example 201): Nothing at all.; Organoleptic Evaluation Flavor (panelists [2]; 10 ppb dissolved in water, Example 107): Nothing at all.; Organoleptic Evaluation Flavor (panelists [2]; 10 ppb, diluted with ethanol, then with water, Reference Example 201): Nothing at all.; Organoleptic Evaluation Taste (panelists [2]; 200 ppm dissolved in water, Example 107): Strongly umami.; Organoleptic Evaluation Taste (panelists [2]; 200 ppm, diluted with ethanol, then with water, Reference Example 201): Strongly umami. |
| Cc1ccc(C)c(COCCCc2ccccn2)c1 [invention product 6, 2-[3-(2,5-dimethylbenzyloxy)propyl]pyridine] | 0.0 | 0.5 | 2.9 | 3.5 | 1.3 | 4.1 | 2.0 | 4.6 | 4.8 | 1.2 | 2.0 | 0.0 | 0.5 | 2.6 | 3.0 | 3.6 | 3.9 | Flavor Evaluation (panelists [5]): Rummy |
